Consider four compounds from patent publication US9930890B2 (priority 2010, dated 2018).

The test system of one data set is Plasmopara viticola. The data set is described as follows: Plasmopara test (grapevine)/protective. The class given is in vivo. As to conditions: grapevine young plants, protective spray, active ingredient concentration 10 ppm, evaluation 6 days after inoculation; 0% = control, 100% = no infection. In short, it runs like this:
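Young grapevine plants sprayed with emulsified formulation at the stated rate, dried, then inoculated with P. viticola spores; 1 day at approx. 20° C/100% RH, 4 days greenhouse approx. 21° C/90% RH, moistened, 1 more day in cabin. Efficacy scored 6 days post-inoculation (0% = untreated control, 100% = no infection).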

Broadly, the chromatographic logP is lipophilicity estimated from chromatographic retention. For the compound `C[Si](C)(C)C#CCOc1ccccc1C1CC(c2csc(C3CCN(C(=O)Cn4nc(C(F)F)cc4C(F)F)CC3)n2)=NO1` (centres unmarked) [I-1, 2-[3,5-Bis(difluoromethyl)-1H-pyrazol-1-yl]-1-(4-{4-[5-(2-{[3-(trimethylsilyl)prop-2-yn-1-yl]oxy}phenyl)-4,5-dihydro-1,2-oxazol-3-yl]-1,3-thiazol-2-yl}piperidin-1-yl)ethanone], the chromatographic logP in “physchem” (pH 2.7) was determined as 4.71; in “physchem” (pH 7.8), 4.58.

Consider `CC(C)(C)OC(=O)Nc1ccc(C2CC(c3csc(C4CCN(C(=O)Cn5nc(C(F)F)cc5C(F)F)CC4)n3)=NO2)cc1` (centres unmarked) [I-17, tert-Butyl (4-{3-[2-(1-([3,5-bis(difluoromethyl)-1H-pyrazol-1-yl]acetyl}piperidin-4-yl)-1,3-thiazol-4-yl]-4,5-dihydro-1,2-oxazol-5-yl)phenyl)carbamate], for which the chromatographic logP came to 3.45 in “physchem” (pH 2.7) and 3.46 in the data set “physchem” (pH 7.8).

`CON=Cc1ccccc1C1CC(c2csc(C3CCN(C(=O)Cn4nc(C(F)F)cc4C(F)F)CC3)n2)=NO1` (centres unmarked) [I-26, 2-{3-[2-(1-{[3,5-Bis(difluoromethyl)-1H-pyrazol-1-yl]acetyl}piperidin-4-yl)-1,3-thiazol-4-yl]-4,5-dihydro-1,2-oxazol-5-yl}benzaldehyde O-methyloxime] returned an Eff. % in the data set on Plasmopara viticola of 100%. This compound also yielded a chromatographic logP in the data set “physchem” (pH 2.7) of 3.59.

`CON=Cc1ccccc1C1CC(c2csc(C3CCN(C(=O)Nc4cc(Cl)ccc4C)CC3)n2)=NO1` (centres unmarked) [I-41, N-(5-Chloro-2-methylphenyl)-4-[4-(5-{2-[(methoxyimino)methyl]phenyl}-4,5-dihydro-1,2-oxazol-3-yl)-1,3-thiazol-2-yl]piperidine-1-carboxamide]: the Eff. % in the data set on Plasmopara viticola amounted to 81%. In “physchem” (pH 2.7), the chromatographic logP turned out to be 3.95.
